Experimental data as given in US6444670B2 (Wyeth, priority 1998, dated 2002).
pIC50: −log10 of the molar value.

Experiments:
[1] = target: T1, Human recombinant PTP1B (hPTP1B) (Homo sapiens, UniProt P18031); assay type: biochemical
T1 construct: made in house
T1 sequence (P18031 1-435): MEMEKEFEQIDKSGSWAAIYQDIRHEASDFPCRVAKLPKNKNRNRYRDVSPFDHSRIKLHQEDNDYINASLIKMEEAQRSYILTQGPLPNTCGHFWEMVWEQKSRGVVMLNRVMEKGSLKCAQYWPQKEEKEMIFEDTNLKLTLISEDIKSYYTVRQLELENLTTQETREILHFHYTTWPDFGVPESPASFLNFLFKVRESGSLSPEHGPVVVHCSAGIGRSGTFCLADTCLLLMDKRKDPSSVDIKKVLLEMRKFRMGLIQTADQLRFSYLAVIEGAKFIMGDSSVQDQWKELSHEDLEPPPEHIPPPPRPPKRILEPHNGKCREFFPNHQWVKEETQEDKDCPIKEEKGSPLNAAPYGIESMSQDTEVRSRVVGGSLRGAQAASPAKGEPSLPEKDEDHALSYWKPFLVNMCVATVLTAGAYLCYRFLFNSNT

[2] = system: rat hepatic microsomal PTPases; conditions: 50 μM compound

| pIC50 [1] | % Change from Control [2] [%] | Compound |
| --- | --- | --- |
| 6.32 | – | Cc1sc2c(Br)c3ccccc3c(-c3ccc(O[C@H](C)C(=O)O)c(C4CCCC4)c3)c2c1C [Example 72, (R)-2-[4-(9-Bromo-2-,3-dimethyl-naphtho[2,3-b]thiophen-4-yl)-2-cyclopentyl-phenoxy]-propionic acid] |
| 5.92 | – | Cc1sc2cc3ccccc3c(-c3ccc(O[C@H](C)C(=O)O)c(C4CCCC4)c3)c2c1C [Example 71, (R)-2-[2-Cyclopentyl-4-(2-,3-dimethyl-naphtho[2,3-b]thiophen-4-yl)-phenoxy]-propionic acid] |
| 6.35 | – | CCc1cc(-c2c3ccccc3cc3sc(C)c(C)c23)ccc1O[C@H](Cc1ccccc1)C(=O)O [Example 76, (R)-2-[4-(2-,3-Dimethyl-naphtho[2,3-b]thiophen-4-yl)-2-ethyl-phenoxy]-3-phenyl-propionic acid] |
| 6.41 | – | Cc1sc2c(Br)c3ccccc3c(-c3ccc(O[C@H](Cc4ccccc4)C(=O)O)cc3)c2c1C [Example 64, (2R)-2-[4-(9-Bromo-2,3-dimethyl-naphtho[2,3-b]thiophen-4-yl)-phenoxy]-3-phenyl-propionic acid] |
| 6.49 | – | CCN(CC)Cc1sc2c(Br)c3ccccc3c(-c3cc(C(C)C)c(O[C@H](Cc4ccccc4)C(=O)O)c(C(C)C)c3)c2c1C [Example 88, (2R)-2-[4-(9-Bromo-2-diethylaminomethyl-3-methyl-naphtho[2,3-b]thiophen-4-yl)-2,6-diisopropyl-phenoxy]-3-phenyl-propionic acid] |
| 6.45 | −49.83 | CCN(CC)Cc1sc2c(Br)c3ccccc3c(-c3cc(Br)c(O[C@H](Cc4ccccc4)C(=O)O)c(Br)c3)c2c1C [Example 37, (R)-2-[2,6-Dibromo-4-(9-bromo-2-diethylaminomethyl-3-methyl-naphtho[2,3-b]thiophen-4-yl)-phenoxy]-3-phenyl-propionic acid] |
| 7.23 | – | Cc1sc2c(Br)c3ccccc3c(-c3cc(C(C)C)c(O[C@H](Cc4ccccc4)C(=O)O)c(C(C)C)c3)c2c1C [Example 55, (2R)-2-[4-(9-Bromo-2,3-dimethyl-naphtho[2.3-b]thiophen-4-yl)-2,6-diisopropyl-phenoxy]-3-phenyl-propionic acid] |
| 6.11 | – | CCc1cc(-c2c3ccccc3cc3oc(C)c(C)c23)cc(Br)c1O[C@H](Cc1ccccc1)C(=O)O [Example 79, (R)-2-[2-Bromo-4-(2-,3-dimethyl-naphtho[2,3-b]furan-4-yl)-6-ethyl-phenoxy]-3-phenyl-propionic acid] |
| 6.14 | −39.60 | Cc1sc2cc3ccccc3c(-c3ccc(O[C@H](Cc4ccccc4)C(=O)O)c(C(C)C)c3)c2c1C [Example 41, (R)-2-[4-(2,3-dimethyl-naphtho[2,3-b]thiophen-4-yl)-2-isopropyl-phenoxy]-3-phenyl-propionic acid] |
| 5.72 | – | 9-Bromo-4-(3-bromo-methoxy-5-nitro-phenyl)-2,3-dimethyl-naphtho[2,3-b]thiophene [Example 57] |
| 5.92 | −91.00 | Cc1cc(-c2c3ccccc3cc3sc(C)c(C)c23)cc(C)c1O[C@H](Cc1ccccc1)C(=O)O [Example 46, (R)-2-[4-(2,3-Dimethyl-naphtho[2,3-b]thiophen-4-yl)-2,6-dimethyl-phenoxy]-3-phenyl-propionic acid] |
| 6.57 | – | CCc1cc(-c2c3ccccc3cc3oc(C)c(C)c23)cc(Br)c1O [Example 78, 2-Bromo-4-(2-,3-dimethyl-naphtho[2,3-b]furan-4-yl)-6-ethyl-phenol] |
| 6.48 | – | CCc1cc(-c2c3ccccc3c(Br)c3oc(C)c(C)c23)cc(CC)c1O[C@H](Cc1ccccc1)C(=O)O [Example 70, (R)-2-[4-(9-Bromo-2-,3-dimethyl-naphtho[2,3-b]furan-4-yl)-2.6-diethyl-phenoxy]-3-phenyl-propionic acid] |
| 6.34 | −81.27 | Cc1sc2cc3ccccc3c(-c3cc(C(C)C)c(O[C@H](Cc4ccccc4)C(=O)O)c(C(C)C)c3)c2c1C [Example 50, (R)-2-[4-(2,3-Dimethyl-naphtho[2,3-b]thiophen-4-yl)-2,6-diisopropyl-phenoxy]-3-phenyl-propionic acid] |
| 6.52 | −57.74 | Cc1sc2c(Br)c3ccccc3c(-c3cc(Br)c(OC(Cc4ccccc4)C(=O)O)c([N+](=O)[O-])c3)c2c1C (stereo not shown) [Example 38, [2-Bromo-4-(9-bromo-2,3-dimethyl-naphtho[2,3-b]thiophen-4-yl)-2-nitro-phenoxy]-3-phenyl-propionic acid] |
| 5.87 | −67.00 | Cc1c(CN2CCOCC2)sc2c(Br)c3ccccc3c(-c3cc(Br)c(OC(C)C(=O)O)c(Br)c3)c12 (stereo not shown) [Example 36, 2-[2,6-Dibromo-4-(9-bromo-3-methyl-2-morpholin-4-ylmethyl-naphtho[2,3-b]thiophen-4-yl)-phenoxy]-propionic acid] |
| 7.00 | −63.01 | Cc1sc2c(Sc3ccccc3)c3ccccc3c(-c3cc(Br)c(O[C@H](C)C(=O)O)c(Br)c3)c2c1C [Example 34, (R)-2-[2,6-Dibromo-4-(2,3-dimethyl-9-phenylsulfanyl-naphtho[2,3-b]thiophen-4-yl)-phenoxy]-propionic acid] |
| 5.66 | – | Cc1sc2cc3ccccc3c(-c3ccc(O[C@H](Cc4ccccc4)C(=O)O)c(F)c3)c2c1C [Example 51, (R)-2-[4-(2,3-Dimethyl-naphtho[2,3-b]thiophen-4-yl)-2-fluoro-phenoxy]-3-phenyl-propionic acid] |
| 6.13 | −26.11 | Cc1sc2c(Br)c3ccccc3c(-c3cc(N)c(O)c(Br)c3)c2c1C [Example 23, 2-Amino-6-bromo-4-(9-bromo-2,3-dimethyl-naphtho[2,3-b]thiophen-4-yl)-phenol] |
| 7.55 | – | Cc1cc(-c2c3ccccc3c(Br)c3sc(C)c(C)c23)cc(C)c1O[C@H](Cc1ccccc1)C(=O)NCC(=O)O [Example 62, {(2R)-2-[4-(9-Bromo-2,3-dimethyl-naphtho[2,3-b]thiophen-4-yl)-2,6-dimethyl-phenoxy]-3-phenyl-propionylamino}-acetic acid] |
| 7.10 | – | CCc1cc(-c2c3ccccc3cc3sc(C)c(C)c23)cc(CC)c1O[C@H](Cc1ccccc1)C(=O)NCC(=O)O [Example 68, {(2R)-2-[4-(2,3 -Dimethyl-naphtho[2,3-b]thiophen-4-yl)-2,6-diethyl-phenoxy]-3-phenyl-propionylamino}-acetic acid] |
| 6.01 | – | Cc1oc2cc3ccccc3c(-c3cc(Br)c(O[C@H](Cc4ccccc4)C(=O)O)c(Br)c3)c2c1C [Example 54, (2R)-2-[2,6-Dibromo-4-(2,3-dimethyl-naphtho[2,3-b]furan-4-yl)-phenoxy]-3-phenyl-propionic acid] |
| 6.69 | −94.50 | Cc1sc2cc3ccccc3c(-c3ccc(O[C@H](Cc4ccccc4)C(=O)O)c(C4CCCC4)c3)c2c1C [Example 45, (R)-2-[2-Cyclopentyl-4-(2,3-dimethyl-naphtho[2,3-b]thiophen-4-yl)-phenoxy]-3-phenyl-propionic acid] |
| 6.89 | – | CCCc1cc(-c2c3ccccc3c(Br)c3sc(C)c(C)c23)ccc1O[C@H](Cc1ccccc1)C(=O)O [Example 83, (R)-2-[4-(9-Bromo-2-,3-dimethyl-naphtho[2,3-b]thiophen-4-yl)-2-propyl-phenoxy]-3-phenyl-propionic acid] |
| 6.54 | −87.66 | Cc1sc2c(Br)c3ccccc3c(-c3ccc(O[C@H](Cc4ccccc4)C(=O)O)c(F)c3)c2c1C [Example 52, (R)-2-[4-(9-Bromo-2,3-dimethyl-naphtho[2,3-b]thiophen-4-yl)-2-fluoro-phenoxy]-3-phenyl-propionic acid] |
| – | −65.31 | [2-Bromo-4-(9-bromo-2,3-dimethyl-naphtho[2,3-b]thiophen-4-yl)-2-nitro-phenoxy]-acetic acid [Example 24] |
| 7.02 | −68.48 | Cc1sc2c(Br)c3ccccc3c(-c3ccc(O[C@H](Cc4ccccc4)C(=O)O)c(C4CCCC4)c3)c2c1C [Example 47] |
| 5.06 | – | Ammonium molybdate tetrahydrate [reference compound] |
| 6.86 | – | CCc1cc(-c2c3ccccc3c(Br)c3sc(C)c(C)c23)cc(CC)c1O[C@H](Cc1ccccc1)C(=O)NCC(=O)O [Example 63, {(2R)-2-[4-(9-Bromo-2,3-dimethyl-naphtho[2,3-b]thiophen-4-yl)-2,6-diethyl-phenoxy]-3-phenyl-propionylamino}-acetic acid] |
